For data set [1], the system named is SW48 cells. As to the kind of experiment: Cell cycle arrest by PI flow cytometry. Type of data set: cell-based, human. The note with it: for Percentage of Cell Cycle Distribution G0/G1 / Percentage of Cell Cycle Distribution G2/M / Percentage of Cell Cycle Distribution S: 72 h. As to the method:
(§1) A PI/RNase staining assay (BD Bioscience™) was performed to reveal the presence of cell cycle arrest and apoptotic cells after treatment with GNTbm compounds, Chidamide and Entinostat. […] After treatment cells were harvested, fixed with 80% ethanol for 24 h, washed with 1×PBS and stained with PI/RNase for 15 min at room temperature. The cells were then analyzed using Flow Cytometer within 1 h.
A general note: In flow cytometry, cells or beads pass a laser one at a time.

Data set [2] has as its system SW48 cells. As to the kind of experiment: Cell apoptosis (sub-G1) by PI flow cytometry. Type of data set: cell-based, human. The note with it: 72 h. Here is the method:
as §1

The next data set has as its system M10. The data set is described as follows: In vitro cytotoxicity MTT assay. Format: cell-based, human. The conditions noted are these: Homo sapiens, M10, 72 h, IC50 ± SD. As to the method: (§2) Six different cell lines were used, including human breast cancer cell line MDA-MB-231 (6×10^3), MDA-MB-453 (2.4×10^4), SK-BR-3 (6×10^3), human breast epithelial cell line M10 (6×10^3), human gastric carcinoma NCI-N87 (2.4×10^4), and human colorectal adenocarcinoma SW48 (2.4×10^4), and seeded in a 96 well plate. Cell lines were obtained from Bioresource Collection and Research Center, BCRC, Taiwan. […] After 72 h, MTT assay (Cayman™) was used to determine the cellular viability.
A general note: Tetrazolium assays rely on reduction of a dye to a coloured formazan, in cell work by metabolically active cells.

Another data set has as its system MDA-MB-453. The data set is described as follows: In vitro cytotoxicity MTT assay. Type of data set: cell-based, human. The note with it: Homo sapiens, MDA-MB-453, 72 h, IC50 ± SD. As to the method: as §2
The test system of a further data set is SW48. The data set is described as follows: In vitro cytotoxicity MTT assay. Format: cell-based, human. The conditions noted are these: Homo sapiens, SW48, 72 h, IC50 ± SD. As to the method:
as §2

The test system of the next data set is MDA-MB-231. The data set is described as follows: In vitro cytotoxicity MTT assay. Format: cell-based, human. The conditions noted are these: Homo sapiens, MDA-MB-231, 72 h, IC50 ± SD. Here is the method:
as §2

Another data set concerns NCI-N87. The data set is described as follows: In vitro cytotoxicity MTT assay. Format: cell-based. The note with it: Homo sapiens, 72 h, IC50 ± SD. As to the method: as §2
The target of a further data set is HDAC2 (Homo sapiens (Human), UniProt Q92769). The data set is described as follows: HDACs 1, 2, and 3 enzymatic inhibition (fluorogenic kit, 1 h). Format: biochemical. The note with it: 37° C. As to the method:
(§3) HDACs assay was performed according to standard Protocols (Fluorgenic HDACs 1, 2, and 3 assay kit, BPS Bioscience™). […] After 1 h, assay developer was added to the samples and the absorbance was read at fluorogenic wavelength. The relative inhibition to HDACs 1, 2, and 3 activities in each sample was determined.

The target of the next data set is HDAC1 (Homo sapiens (Human), UniProt Q13547). Described as above. Format: biochemical. The note with it: 37° C. Here is the method: as §3
Chain of HDAC1 (Q13547 whole entry): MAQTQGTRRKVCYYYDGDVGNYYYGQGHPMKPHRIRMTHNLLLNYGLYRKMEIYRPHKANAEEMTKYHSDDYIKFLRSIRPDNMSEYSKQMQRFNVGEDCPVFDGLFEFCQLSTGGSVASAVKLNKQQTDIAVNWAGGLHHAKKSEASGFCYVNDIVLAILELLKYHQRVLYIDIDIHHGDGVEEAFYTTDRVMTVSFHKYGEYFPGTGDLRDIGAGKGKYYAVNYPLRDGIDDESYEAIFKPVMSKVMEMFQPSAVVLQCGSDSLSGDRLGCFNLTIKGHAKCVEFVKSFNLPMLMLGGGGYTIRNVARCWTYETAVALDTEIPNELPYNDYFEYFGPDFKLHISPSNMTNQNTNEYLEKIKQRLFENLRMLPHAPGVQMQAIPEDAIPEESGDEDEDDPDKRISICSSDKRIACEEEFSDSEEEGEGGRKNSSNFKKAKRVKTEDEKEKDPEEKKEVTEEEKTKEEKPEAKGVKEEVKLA
A further data set addresses HDAC3 (Homo sapiens (Human), UniProt O15379). The description is as above. Format: biochemical. The note with it: 37° C. Here is the method: as §3
The test system of data set [3] is histone H3 acetylation (AcH3) in SW48 cells. As to the kind of experiment: Western blot of histone H3 acetylation. Format: cell-based, human. The conditions noted are these: SW48, 24 h, FIG. 12c. As to the method:
Human breast cancer MDA-MB-231 cells and human colorectal adenocarcinoma SW48 cells were analyzed. MDA-MB-231 and SW48 were obtained from Bioresource Collection and Research Center (BCRC, Taiwan). MDA-MB-231 and SW48 were grown at 37° C. under humidified air supplemented without CO2 in Leibovitz's L-15 (cat. #11415114, Thermo Fisher Scientific) containing 10% heat inactivated fetal calf serum (Thermo Scientific), 1× concentration of MycoZap antibiotics (cat. #VZA-2011, Lonza). Cells were treated with GNTbm compounds series, Chidamide or Entinostat for different time periods or at varied doses. Cells were treated with indicated doses for 24 h or cells were treated with indicated doses for different time periods. Cell pellets were dissolved with RIPA buffer (cat. #20-188, Merck) with protease and phosphatase inhibitors (cat. #K272, BioVision) and clarified by centrifugation. Equal amounts of total protein were resolved by SDS-PAGE and transferred to polyvinylidene fluoride membranes (cat. #1620177, BIO-RAD). Blots were incubated with primary antibodies against β-actin (cat. #sc-47778, Santa Cruz Biotechnology), Histone 3ac (cat. #61637, Active Motif), and HRP secondary antibodies anti-rabbit (ab6721, Abcam) and anti-mouse (sc-2005, Santa Cruz). Blots were developed using the ECL Western Blotting Substrate (cat. #sc-2048, Santa Cruz Biotechnology) Image blots were analyzed with the iBright FL1000 (Thermo Fisher Scientific) imaging systems.
On the technique in general: In western blotting, separated proteins are transferred to a membrane and probed.

A short description of the next data set: Saturation solubility. Format: physicochemical. The conditions noted are these: ddH2O, 25° C., 90 minutes; mean ± SD; BDL: Below detection limit. As to the method:
Samples of 5 mg of compounds were added to 5 ml volumetric flasks containing ddH2O and shaken at 100 rpm in an incubator at 25° C. for 90 minutes. The resulting suspension was filtered through a 0.22 μm filter. The concentrations of compounds were determined spectrophotometrically at 256 nm. The saturation solubility of each sample was determined in triplicates and the mean value and standard deviation were reported.

Chain of HDAC3 (O15379 whole entry): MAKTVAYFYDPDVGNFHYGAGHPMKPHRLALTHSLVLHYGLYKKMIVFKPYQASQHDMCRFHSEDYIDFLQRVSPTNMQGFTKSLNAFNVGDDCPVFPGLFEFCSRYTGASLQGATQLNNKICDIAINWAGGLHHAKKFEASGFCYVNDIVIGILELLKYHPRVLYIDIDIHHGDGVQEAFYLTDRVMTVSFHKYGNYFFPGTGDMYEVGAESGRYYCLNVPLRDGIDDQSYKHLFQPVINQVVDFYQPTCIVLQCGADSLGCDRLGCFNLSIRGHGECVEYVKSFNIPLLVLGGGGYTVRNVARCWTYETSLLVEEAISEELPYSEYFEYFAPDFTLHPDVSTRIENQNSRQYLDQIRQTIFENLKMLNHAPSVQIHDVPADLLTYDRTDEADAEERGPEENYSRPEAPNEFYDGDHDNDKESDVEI
Chain of HDAC3 (Q9Y618 395-489 partner): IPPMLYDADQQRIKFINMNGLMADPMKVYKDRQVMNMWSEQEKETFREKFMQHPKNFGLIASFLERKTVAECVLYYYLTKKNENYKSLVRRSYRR
Chain of HDAC2 (Q92769 whole entry): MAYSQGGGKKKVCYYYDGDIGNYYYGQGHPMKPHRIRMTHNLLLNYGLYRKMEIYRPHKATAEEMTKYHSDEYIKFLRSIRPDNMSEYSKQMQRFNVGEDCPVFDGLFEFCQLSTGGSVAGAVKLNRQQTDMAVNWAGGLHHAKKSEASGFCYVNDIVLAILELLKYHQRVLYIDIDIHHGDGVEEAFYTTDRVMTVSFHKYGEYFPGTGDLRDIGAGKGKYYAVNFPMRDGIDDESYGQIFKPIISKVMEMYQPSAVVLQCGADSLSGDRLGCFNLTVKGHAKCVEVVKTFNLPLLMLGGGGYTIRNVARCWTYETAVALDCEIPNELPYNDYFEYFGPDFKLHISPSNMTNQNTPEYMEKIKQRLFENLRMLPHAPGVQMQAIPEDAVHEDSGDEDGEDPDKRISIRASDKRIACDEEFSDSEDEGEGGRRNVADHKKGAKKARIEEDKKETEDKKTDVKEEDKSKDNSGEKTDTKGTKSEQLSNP

In general, IC50 refers to the midpoint of a concentration-inhibition curve. As for `Nc1ccccc1NC(=O)c1ccc(NC(=O)C/C=C/c2cccnc2)cn1` [GNTbm-05, 5-((E)-4-(pyridin-3-yl)but-3-enamido)-N-(2-aminophenyl)pyridine-2-carboxamide], the “Percentage of Cell Cycle Distribution G0/G1” value in the data set on SW48 cells [1] (SW48, 0.125 μM) is 61.5%; in the data set on SW48 cells [1] (SW48, 0.5 μM) it was 59.2%; in the data set on SW48 cells [1] (SW48, 1 μM) it was 55.4%; in the data set on SW48 cells [1] (SW48, 2 μM) it was 53.6%. For the same molecule, the “Percentage of Cell Cycle Distribution G2/M” value in the data set with SW48 cells [1] (SW48, 0.125 μM) is 18.7%; in the data set on SW48 cells [1] (SW48, 0.5 μM), 22.2%; with SW48 cells [1] (SW48, 1 μM), 31.8%; in the data set on SW48 cells [1] (SW48, 2 μM), 34.6%. Besides, the “Percentage of Cell Cycle Distribution S” value stood at 19.8% in the data set on SW48 cells [1] (SW48, 0.125 μM); 18.6% with SW48 cells [1] (SW48, 0.5 μM); 12.8% in the data set on SW48 cells [1] (SW48, 1 μM); 11.8% in the data set on SW48 cells [1] (SW48, 2 μM). Besides, the Cell cycle arrest result with SW48 cells [1] (SW48, doses of Table 12) was “significantly induced cell cycle arrest in the G2/M phase in SW48 cells”. Moreover, the “Percentages of Cell Apoptosis” value in the data set with SW48 cells [2] (SW48, 0.125 μM) is listed as 9.0%; in the data set on SW48 cells [2] (SW48, 0.5 μM), 17.9%; in the data set with SW48 cells [2] (SW48, 1 μM), 27.2%; with SW48 cells [2] (SW48, 2 μM), 42.4%. Moreover, in the data set on SW48 cells [2] (SW48, indicated doses (Table 13)), the Induction of apoptosis entry is listed as “potent in inducing apoptosis in SW48 cells”. Further, the IC50 came to 430 ± 30 nM with M10; 1580 ± 3 nM with MDA-MB-453; 1640 ± 20 nM in the data set with SW48; 1660 ± 20 nM in the data set on MDA-MB-231; 280 ± 10 nM in the data set with NCI-N87; 360 ± 20 nM at HDAC2. The IC50 against HDAC1 was 140 ± 2 nM; on HDAC3, 1 ± 0.04 nM. Further, in [3], the “Histone 3 acetylation expression versus Chidamide” value is “more potent in inducing the histone 3 acetylation expression in SW48 cells than Chidamide”.
As to `Cc1ccc(/C=C/CC(=O)Nc2ccc(C(=O)Nc3ccccc3N)nc2)cn1` [GNTbm-06, 5-((E)-4-(6-methylpyridin-3-yl)but-3-enamido)-N-(2-aminophenyl)pyridine-2-carboxamide], the IC50 in the data set on M10 was 1950 ± 30 nM; with MDA-MB-453, 1590 ± 10 nM; in the data set with SW48 it was 2320 ± 80 nM; in the data set on MDA-MB-231, 3870 ± 700 nM; with NCI-N87, 2200 ± 30 nM; on HDAC2, 390 ± 20 nM. In addition, the IC50 was 100 ± 20 nM at HDAC1 and 9 ± 10 nM on HDAC3. Moreover, the “Saturation Solubility” value in “Saturation solubility” was “BDL”.
As to `Cc1ccc(CCCC(=O)Nc2ccc(C(=O)Nc3ccc(F)cc3N)nc2)cn1` [GNTbm-08, 5-(4-(6-methylpyridin-3-yl)butanamido)-N-(2-amino-4-fluorophenyl)pyridine-2-carboxamide], the IC50 in the data set on M10 was 20800 ± 140 nM; in the data set with MDA-MB-453, 3780 ± 500 nM; in the data set on SW48, 18400 ± 1000 nM; in the data set on MDA-MB-231 it was above 50000 nM; in the data set with NCI-N87, 15500 ± 1700 nM; against HDAC2, 1540 ± 280 nM. Moreover, the values for the half-inhibitory concentration (IC50) on HDAC1 and against HDAC3 were 370 ± 310 nM and 1 ± 0.02 nM, respectively.
As for `Nc1cc(C(F)(F)F)ccc1NC(=O)c1ccc(NC(=O)C/C=C/c2cccnc2)cn1` [GNTbm-11, 5-((E)-4-(pyridin-3-yl)but-3-enamido)-N-(2-amino-4-(trifluoromethyl)phenyl)pyridine-2-carboxamide], the IC50 with M10 was 1650 ± 200 nM; with MDA-MB-453, 2280 ± 60 nM; with SW48 it was 2600 ± 450 nM; in the data set with MDA-MB-231, 1710 ± 40 nM; in the data set with NCI-N87 it was 1870 ± 40 nM; on HDAC2 it was above 20000 nM. The IC50 at HDAC1 was above 20000 nM; against HDAC3 it was 1 nM.
With `Cc1ccc(/C=C/CC(=O)Nc2ccc(C(=O)Nc3ccc(C(F)(F)F)cc3N)nc2)cn1` [GNTbm-12, 5-((E)-4-(6-methylpyridin-3-yl)but-3-enamido)-N-(2-amino-4-(trifluoromethyl)phenyl)pyridine-2-carboxamide], the IC50 is 38500 ± 5900 nM in the data set with M10; 15800 ± 3900 nM in the data set with MDA-MB-453; above 50000 nM in the data set with SW48; above 50000 nM in the data set on MDA-MB-231; above 50000 nM in the data set with NCI-N87; above 20000 nM on HDAC2. Further, the IC50 against HDAC1 and against HDAC3 was above 20000 nM each time.
As for `Cc1ccc(CCCC(=O)Nc2ccc(C(=O)Nc3ccccc3N)nc2)cn1` [GNTbm-19, 5-(4-(6-methylpyridin-3-yl)butanamido)-N-(2-aminophenyl)pyridine-2-carboxamide], the IC50 in the data set on M10 stood at 2890 ± 120 nM; in the data set with MDA-MB-453, 1810 ± 20 nM; in the data set with SW48, 8730 ± 240 nM; with MDA-MB-231, 5690 ± 1700 nM; in the data set on NCI-N87 it was 4300 ± 1400 nM; against HDAC2 it was 1420 ± 190 nM. The half-inhibitory concentration (IC50) against HDAC1 was 480 ± 30 nM; at HDAC3, 2980 ± 80 nM.
Take `Cc1ccc(CCCC(=O)Nc2ccc(C(=O)Nc3ccc(C(F)(F)F)cc3N)nc2)cn1` [GNTbm-25, 5-(4-(6-methylpyridin-3-yl)butanamido)-N-(2-amino-4-(trifluoromethyl)phenyl)pyridine-2-carboxamide]: the IC50 is above 50000 nM in the data set on M10; 19100 ± 2070 nM with MDA-MB-453; above 50000 nM in the data set on SW48; above 50000 nM in the data set with MDA-MB-231; above 50000 nM in the data set with NCI-N87; above 20000 nM at HDAC2. Also, the IC50 on HDAC1 and at HDAC3 was above 20000 nM each time.
Turning to `Nc1cc(C(F)(F)F)ccc1NC(=O)c1ccc(NC(=O)C/C=C/c2cccnc2)cc1` [GNTbm-33, 4-((E)-4-(pyridin-3-yl)but-3-enamido)-N-(2-amino-4-(trifluoromethyl)phenyl)benzamide], the IC50 in the data set on M10 was 2010 ± 90 nM; in the data set on MDA-MB-453, 1940 ± 220 nM; in the data set on SW48, 1790 ± 30 nM; in the data set with MDA-MB-231 it was 1620 ± 20 nM; in the data set with NCI-N87 it was 1750 ± 20 nM; on HDAC2 it was above 20000 nM. The IC50 on HDAC1 and at HDAC3 was above 20000 nM each time.
As to `Nc1cc(F)ccc1NC(=O)c1ccc(NC(=O)CCCc2cccnc2)cc1` [GNTbm-37, 4-(4-(pyridin-3-yl)butanamido)-N-(2-amino-4-fluorophenyl)benzamide], the IC50 in the data set with M10 turned out to be 8850 ± 590 nM; with MDA-MB-453, 4890 ± 340 nM; with SW48, 21300 ± 1640 nM; in the data set with MDA-MB-231, 8070 ± 540 nM; in the data set on NCI-N87, 10600 ± 600 nM; against HDAC2, 3150 ± 310 nM. The IC50 against HDAC1 was determined as 9040 ± 600 nM; against HDAC3, 1740 ± 290 nM.

(Values after patent US11672788B2, “Histone deacetylase inhibitors for immunomodulation in tumor microenvironment” (GREAT NOVEL THERAPEUTICS BIOTECH & MEDICALS CORPORATION, priority 2020, dated 2023).)
